Read-outs that look alike come from different tables or passages of the source. Where a SMILES comes first, the peptide text is derived from it. [ ]: non-standard residue; d: D form. β3hR = N=C(N)NCCC[C@H](N)CC(=O)O; β3hE = N[C@@H](CCC(=O)O)CC(=O)O
Biological target: gp41-5 (Human immunodeficiency virus type 1 group M subtype B, UniProt P04578, C598G/DEL582-595/DEL601-626/T627G/W596S)
Assay: biochemical
Assay type: binding, HIV
Conditions: competition FP

Row | Compound | Ki (read-out: Ki for gp41-5) | Ki (Table 2, read-out: gp41-5 Ki)
1 | CC[C@H](C)[C@H](NC(=O)[C@H](C)NC(=O)C[C@H](CCCNC(=N)N)NC(=O)[C@H](CC(=O)O)NC(=O)[C@H](Cc1c[nH]c2ccccc12)NC(=O)C[C@H](CCC(=O)O)NC(=O)[C@H](CCC(=O)O)NC(=O)[C@H](Cc1c[nH]c2ccccc12)NC(=O)[C@@H](NC(=O)C[C@H](CCCNC(=N)N)NC(C)=O)[C@@H](C)O)C(=O)N[C@@H](C)C(=O)N[C@@H](CCC(=O)O)CC(=O)N[C@@H](Cc1ccc(O)cc1)C(=O)N[C@@H](C)C(=O)N[C@@H](CCCNC(=N)N)CC(=O)N[C@@H](CCCNC(=N)N)C(=O)N[C@H](C(=O)N[C@@H](CCC(=O)O)C(=O)N[C@@H](CCC(=O)O)CC(=O)N[C@@H](CC(C)C)C(=O)N[C@H](C(=O)N[C@@H](CCCNC(=N)N)CC(=O)N[C@@H](C)C(=O)N[C@@H](C)C(=O)N[C@@H](CCC(N)=O)C(=O)N[C@@H](CCC(=O)O)CC(=O)N[C@@H](CCC(N)=O)C(=O)N[C@@H](CCC(N)=O)C(=O)N[C@@H](CCCNC(=N)N)CC(=O)N[C@@H](CCCCN)C(=O)N[C@@H](CC(N)=O)C(=O)N[C@@H](CCC(=O)O)C(=O)N[C@@H](CCC(=O)O)CC(=O)N[C@@H](C)C(=O)N[C@@H](CC(C)C)C(=O)N[C@@H](CCCNC(=N)N)CC(=O)N[C@@H](CCC(=O)O)C(=O)N[C@@H](CC(C)C)C(N)=O)[C@@H](C)CC)[C@@H](C)CC [compound 17] (Ac-[β3hR]TWE[β3hE]WD[β3hR]AIA[β3hE]YA[β3hR]RIE[β3hE]LI[β3hR]AAQ[β3hE]QQ[β3hR]KNE[β3hE]AL[β3hR]EL-NH2) | 11 nM | 
2 | CC[C@H](C)[C@H](NC(=O)[C@H](C)NC(=O)[C@H](CCCNC(=N)N)NC(=O)[C@H](CC(=O)O)NC(=O)[C@H](Cc1c[nH]c2ccccc12)NC(=O)[C@H](C)NC(=O)[C@H](CCC(=O)O)NC(=O)[C@H](Cc1c[nH]c2ccccc12)NC(=O)[C@@H](NC(=O)[C@@H](NC(C)=O)[C@@H](C)O)[C@@H](C)O)C(=O)N[C@@H](C)C(=O)N[C@@H](CCC(=O)O)C(=O)N[C@@H](Cc1ccc(O)cc1)C(=O)N[C@@H](C)C(=O)N[C@@H](C)CC(=O)N[C@@H](CCCNC(=N)N)C(=O)N[C@H](C(=O)N[C@@H](CCC(=O)O)C(=O)N[C@@H](C)CC(=O)N[C@@H](CC(C)C)C(=O)N[C@H](C(=O)N[C@@H](CCCNC(=N)N)CC(=O)N[C@@H](C)C(=O)N[C@@H](C)C(=O)N[C@@H](CCC(N)=O)C(=O)N[C@@H](CCC(=O)O)CC(=O)N[C@@H](CCC(N)=O)C(=O)N[C@@H](CCC(N)=O)C(=O)N[C@@H](CCC(=O)O)CC(=O)N[C@@H](CCCCN)C(=O)N[C@@H](CC(N)=O)C(=O)N[C@@H](CCC(=O)O)C(=O)N[C@@H](C)CC(=O)N[C@@H](C)C(=O)N[C@@H](CC(C)C)C(=O)N[C@@H](CCCNC(=N)N)CC(=O)N[C@@H](CCC(=O)O)C(=O)N[C@@H](CC(C)C)C(N)=O)[C@@H](C)CC)[C@@H](C)CC [compound 6] |  | 15 nM

From US10647743B2, “Method of making biologically active alpha-beta peptides” (priority 2008, dated 2020)
